# Test results as given in US20220213170A1, “PEPTIDES” (Hubro Therapeutics AS, priority 2019, published 2022).
# Where no end group is shown, it is not given here.
# Assays:
# [1] = tested on: T cells (PBMC) from healthy donors; test: T-cell proliferation (3H-thymidine uptake, stimulation index) after in vitro stimulation of PBMC with fsp2+fsp4 cocktail; format: cell-based, human; details: for Immunogenicity (T cell proliferation, stimulation index): first and second round of stimulation with fsp2+fsp4, 10 μM test peptide, FIGS. 10-12; for Immune response of Donor 3: Donor 3, stimulation with fsp2 and fsp4 mixture, FIG. 11; for Immunogenicity relative to fsp3 and fsp4: FIGS. 10 and 11, peptides with wild-type TGFβR2 amino acids vs without
# Method: Fresh buffy coats from four healthy donors were obtained from a blood bank.
# Peripheral blood mononuclear cells (PBMC) isolated from fresh buffy coats from four healthy donors were counted and suspended in DC medium to 15*10^6 cells/ml, and subsequently diluted with DC-medium to 4*10^6 cells/ml (Table 6).
# Four 24-well plates were used for each donor, with 4*10^6 cells per well (each well has a volume of 1 ml).
# Peptide cocktail: Solution of peptides fsp2+fsp4, containing 10 μM of each peptide. 40 μl peptide solution was added to each well.
# The plates were incubated in a cell incubator for 14 days (37° C., 5% CO2). IL-2 and IL-7 were added on day 3. The cells were inspected daily.
# Test peptides: fsp2+fsp4 (SEQ ID NOs: 5 and 7), fsp1 (SEQ ID NO: 4), fsp2 (SEQ ID NO: 5), fsp3 (SEQ ID NO: 6), fsp4 (SEQ ID NO: 7), fsp5 (SEQ ID NO: 3).
# Cells and reagents were added to plate wells (in triplicate) as described in Tables 7 and 8 below. The total volume added to each well was 0.20 ml. • T cells (PBMC): 50 000 cells/well (0.25*10^6 cells/ml) • APC: Irradiated (30Gy, 8 minutes) autologous feeder cells: 50 000 cells/well • Peptide (fspx): […] peptide/well (each peptide), concentration: 10 μM peptide. (fsp was dissolved in DMSO before dilution to correct concentration)
# The plates were incubated in a cell incubator for 48 hours (37° C., 5% CO2).
# After incubation for 48 hours, 20 μl 3H-tThymidine solution (5 μCi/ml) was added to each well and the plates were incubated for approximately 17 hours (37° C., 5% CO2).
# After 17 hours the cells were harvested (Unifilters) and dried on the filters at 45° C. until completely dry. After covering the bottom of the Unifilters with adhesive covers (delivered with the Unifilters) 25 μl micro scintillation liquid was added to each well, the plate was covered with TopSeal and 3H-Thymidine uptake was measured as counts per minute (CPM) using a microplate scintillation counter.
# The T cell proliferation results after the first round of in vitro stimulation with the cocktail of fsp2 and fsp4 peptides are presented as stimulation index (SI) in FIG. 10. SI=mean CPM (triplicates) of (T cells+APC+test peptide(s)) divided by mean CPM (triplicates) of (T cells+APC). SI≥2 is a clear signal of immunogenicity.
# PBMCs harvested after the first in vitro stimulation were re-stimulated in vitro according to the protocol set out above, with 2×10^6 cells per well. T-cell proliferation was tested according to the protocol set out above.
# The T cell proliferation results after a second round of in vitro stimulation with the cocktail of fsp2 and fsp4 peptides are presented as stimulation index (SI) in FIG. 11.
# [2] = tested on: tumour infiltrating Th cells in MSI+ tumours; details: cited from earlier work
# [3] = tested on: T-cells from PMBCs from four healthy donors; test: T-cell proliferation (stimulation index) after induction of PBMC with fsp2, fsp8 and fsp9 mixture; format: cell-based, human; details: for Immunogenicity (T-cell proliferation, stimulation index): first round of stimulation, T-cells induced with fsp2+fsp8+fsp9, FIG. 13
# Method: The same protocol as that set out in Example 7 was used to test the immunogenicity of fsp6 and fsp7 (SEQ ID NO: 26 and SEQ ID NO: 27, respectively), except for the peptide mixture used to induce T-cells from PMBCs from fresh buffy coats from four healthy donors. The peptide mixture used in this Example to induce T-cells from PMBCs was made up of fsp2 (SEQ ID NO: 5; 10 μM), fsp8 (SEQ ID NO: 31; 10 μM) and fsp9 (SEQ ID NO: 32; 10 μM). Fsp8 (SEQ ID NO: 31; […]) is a peptide of ASTE1 having a −1a frameshift mutation, and fsp9 (SEQ ID NO: 32; […]) is a peptide of TAF1β having a −1a frameshift mutation.
# At day 14 after induction, a T-cell proliferation assay was carried out as in Example 7, using fsp2 (SEQ ID NO: 5), fsp6 (SEQ ID NO: 26) and fsp7 (SEQ ID NO: 27) as test peptides. As fsp8 and fsp9 have very different amino acid sequences from fsp2, only fsp2 would be able to induce T-cells which are capable of recognising and being stimulated by fsp2, fsp6 and fsp7. […] Two further rounds of T-cell stimulation were also carried out, with a T-cell proliferation assay being carried out 14 days after each stimulation.
# The T-cell proliferation results after the first round of in vitro stimulation are presented as stimulation index (SI) in FIG. 13. […] It is also expected, in view of the results shown in FIGS. 11 and 12, that a peptide having the sequence of fsp6 (SEQ ID NO: 26) but having an amino acid substitution corresponding to that in fsp2, and particularly a C-to-G amino acid substitution as in fsp2, is also immunogenic and is useful as a vaccine or treatment against cancer. […] Thus, it is expected that fsp6a (SEQ ID NO: 28), which is identical to fsp6 (SEQ ID NO: 26) except for the same C-to-G amino acid substitution as fsp2 (SEQ ID NO: 5), will also be immunogenic.
# [4] = tested on: CTLs (HLA-A2.1 restricted); details: cited from earlier work
# T-cells = details: after four rounds of stimulation of the T-cells; cited from earlier work
# [5] = Peptide stability (purity by UPLC after lyophilisation or storage); format: physicochemical; details: purified peptide, dropped from around 90% before lyophilisation
# Method: A batch of fsp5 (SEQ ID NO: 3) was prepared by solid phase peptide synthesis (SPPS) by using FMOC chemistry and Prelude synthesizer (Gyros Protein Technologies Inc., USA). The crude peptide was analysed by UPLC and MS. […] UPLC system: Column; Acquity UPLC BEH C18 […], […], detection; PDA 210-500 nm, solvent A); 0.1% TFA in water, solvent B; 0.1% TFA in MeCN, gradient: 20-70% B (2-10 minutes, linear).
# When the purity of the small amount of purified fsp5 (SEQ ID NO: 3) was reassessed by UPLC after lyophilisation, the purity had dropped from around 90% to below 50% as shown in FIG. 4.
# Peptide solubility = format: physicochemical
# Method: The peptide was difficult to dissolve and it was attempted to dissolve the crude fsp5 (SEQ ID NO: 3) (˜150 mg) in approximately 4 ml 50% MeCN in water under gentle heating.
# Another batch of fsp5 (SEQ ID NO: 3) was prepared, dissolved in neat DMSO under gentle heating and purified by preparative HPLC. Again, only very small amounts of purified fsp5 (SEQ ID NO: 3) were obtained.
# CTL = details: cited from earlier work
# [6] = tested on: colorectal cancer cell line HCT116; details: cell line carries the corresponding frameshift mutation; cited from earlier work
# [7] = patients recognising the peptide
substance,measurement,setting,value
SSGVPVALMSAMTTSSSQKN (also: 2TFA salt) [fsp4],"Immunogenicity (T cell proliferation, stimulation index)",[1],immunogenic
KCIMKEKKSLVRLSSCVPVALMSA (listed as Homo sapiens) [fsp1],Immune response of Donor 3,[1],showed an immune response
same,Immunogenicity relative to fsp3 and fsp4,[1],more immunogenic
same,"Immunogenicity (T cell proliferation, stimulation index)",[1],immunogenic
"PKCIMKEKKKSLVRLSSCV [p541, prior art peptide of mutTGFβR2]","Immunogenicity (Saeterdal, PNAS)",[2],immunogenic
same,Induction of T-cell responses in patients,[2],able to induce T-cell responses in some patients
fsp7: Peptide of SEQ ID NO: 27; same amino acid sequence as fsp2 but truncated at the N-terminus (VRLSSCVPVALMSA; listed as Homo sapiens),"Immunogenicity (T-cell proliferation, stimulation index)",[3],too truncated at the N-terminus compared to fsp2 (SEQ ID NO 5) to be immunogenic
"SLVRLSSCV [p523, prior art peptide of mutTGFβR2]",Immunogenicity (FIG. 1 of Linnebacher et al.),[4],not immunogenic
same,Immunogenicity (FIG. 14 of EP1078000),T-cells,immunogenic
"SLVRLSSCVPVALMSAMTTSSSQ [p538, prior art peptide of mutTGFβR2]","Immunogenicity (Saeterdal, PNAS)",[2],highly immunogenic
same,Recognition by patients having spontaneous MSI+ colon cancer,[2]; [7],two of three
same,Recognition by patients with HNPCC,[2]; [7],all three
KGIMKEKKSLVRLSSCVPVALMSA (not fully specified) [fsp2],Immunogenicity relative to fsp7,[3]; FIG. 13,much more immunogenic
same,Immune response of Donor 3,[1],showed an immune response
same,Immunogenicity relative to fsp3 and fsp4,[1],more immunogenic
same,"Immunogenicity (T cell proliferation, stimulation index)",[1],immunogenic
KCIMKEKKSLVRLSSCVPVALMSAMTTSSSQKN (listed as Homo sapiens) [fsp5],Purity by UPLC after lyophilisation (stability),[5],below 50%
same,Solubility: effect of water on crude DMSO solution,Peptide solubility; addition of even small amounts of water to crude DMSO solution,precipitation of the peptide
same,Solubility,Peptide solubility; crude peptide ~150 mg in approximately 4 ml 50% MeCN in water under gentle heating,no clear solution could be obtained
same,Immunogenicity relative to fsp3 and fsp4,[1],more immunogenic
same,"Immunogenicity (T cell proliferation, stimulation index)",[1],immunogenic
"RLSSCVPVA [p573, prior art peptide of mutTGFβR2]",Activation of specific CTLs in vitro,[4]; HLA-A2.1 restricted,capable of activating specific CTLs
same,Immunogenicity (FIG. 1 of Linnebacher et al.),[4],immunogenic
same,Immunogenicity (FIG. 14 of EP1078000),T-cells,not immunogenic
same,Generation of CTL line and clones,CTL,able to generate a CTL line and several CTL clones
same,"Immunogenicity (Saeterdal, Cancer Immunol Immunother)",CTL,immunogenic
same,Lysis of HCT116,[6],able to lyse
"SPKCIMKEKKSLVRLSSCVPVA [P540, prior art peptide of mutTGFβR2]","Immunogenicity (Saeterdal, PNAS)",[2],immunogenic
same,Induction of T-cell responses in patients,[2],able to induce T-cell responses in some patients
"AMTTSSSQKNITPAILTCC [p537, prior art peptide of mutTGFβR2]","Immunogenicity (Saeterdal, PNAS)",[2],not immunogenic
fsp6: Peptide of SEQ ID NO: 26; same sequence as fsp2 but truncated at the C-terminus and without C-to-G substitution (KCIMKEKKSLVRLSSCV; listed as Homo sapiens),Immunogenicity relative to fsp2,[3]; FIG. 13,less immunogenic
same,Immunogenicity relative to fsp7,[3]; FIG. 13,much more immunogenic
same,"Immunogenicity (T-cell proliferation, stimulation index)",[3],immunogenic
